Measured values reported in ChEMBL document CHEMBL3886674, “Aminopyrimidine derivatives for use as modulators of kinase activity” (2016).

Target: Ribosomal protein S6 kinase beta-1 (Homo sapiens, UniProt P23443, T412E)
Test: Enzyme Assay: P70S6K inhibitor compounds were diluted and plated in 96 well plates. A reaction mixture including the following components was then added to the compound plate to initiate the enzyme reaction; P70S6K (3 nM, T412E mutant, Millipore) was mixed with 24 μM ATP in an assay buffer containing 100 mM Hepes (pH 7.5), 5 mM MgCl2, 1 mM DTT, 0.015% Brij and 1 μM of the substrate peptide FITC-AHA-AKRRRLSSLRA-OH (derived from the S6 ribosomal protein sequence, FITC=fluorescein isothiocyanate, AHA=6-aminohexanoic acid). The reaction was incubated for 90 min at 25° C., before the addition of 10 mM EDTA to stop the reaction.

Sequence of Ribosomal protein S6 kinase beta-1 (P23443 whole entry T412E): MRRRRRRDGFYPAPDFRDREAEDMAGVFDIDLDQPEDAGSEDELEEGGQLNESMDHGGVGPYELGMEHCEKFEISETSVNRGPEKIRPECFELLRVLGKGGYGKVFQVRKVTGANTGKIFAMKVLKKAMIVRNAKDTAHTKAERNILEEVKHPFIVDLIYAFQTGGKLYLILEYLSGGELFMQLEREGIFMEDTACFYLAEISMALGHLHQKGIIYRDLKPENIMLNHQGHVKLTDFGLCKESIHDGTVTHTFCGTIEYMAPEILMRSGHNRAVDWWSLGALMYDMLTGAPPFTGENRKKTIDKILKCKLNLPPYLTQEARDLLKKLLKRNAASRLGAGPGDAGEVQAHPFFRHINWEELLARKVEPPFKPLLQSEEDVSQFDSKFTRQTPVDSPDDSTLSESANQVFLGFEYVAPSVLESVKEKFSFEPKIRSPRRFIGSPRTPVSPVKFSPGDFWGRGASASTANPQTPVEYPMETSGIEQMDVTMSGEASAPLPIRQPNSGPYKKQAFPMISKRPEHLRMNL

Row | IC50 [nM] | SMILES
1 | 13 | Nc1ncnc(N2CCC(C(N)c3ccc(Cl)cc3)CC2)c1-c1ccc(F)cc1 (stereo not drawn)
2 | 17 | Nc1ncnc(N2CCC(C(N)c3ccc(-c4ccc(F)cc4)cc3)CC2)c1-c1ccc(F)cc1 (stereo not drawn)
3 | 27 | Nc1ncnc(N2CCC(C(N)c3ccc(F)cc3)CC2)c1-c1ccc(F)cc1 (stereo not drawn)
